Results on 33 molecules are retold here after ChEMBL document CHEMBL4613209, “Quinolone hybrids and their anti-cancer activities: An overview” (Eur J Med Chem, 2019).

Usually IC50 stands for the point on the concentration scale where inhibition reaches its midpoint.

Type in all cases: functional, cell-based
In assay [1] the test system is Hep 3B2. The experiment in a line: Antiproliferative activity against human Hep3B cells after 24 to 72 hrs by MTT assay. In general terms: Tetrazolium assays rely on reduction of a dye to a coloured formazan, in cell work by metabolically active cells.
For assay [2], the system named is SMMC-7721. The experiment in a line: Antiproliferative activity against human SMMC7721 cells after 24 to 72 hrs by MTT assay.
The subject of assay [3] is L1210. The experiment in a line: Antiproliferative activity against mouse L1210 cells after 24 to 72 hrs by MTT assay.
Assay [4] deals with HL-60. The assay can be described thus: Antiproliferative activity against human HL60 cells after 24 to 72 hrs by MTT assay.
Assay [5] concerns SMMC-7721. The experiment in a line: Cytotoxicity against human SMMC7721 cells assessed as reduction in cell viability by MTT assay.
In assay [6] the test system is L1210. The assay can be described thus: Cytotoxicity against mouse L1210 cells assessed as reduction in cell viability by MTT assay.
Assay [7] relates to HL-60. The assay can be described thus: Cytotoxicity against human HL60 cells assessed as reduction in cell viability by MTT assay.
For assay [8], the system named is Hep 3B2. The experiment in a line: Cytotoxicity against human Hep3B cells assessed as reduction in cell viability by MTT assay.
The test system of the next assay is CAPAN-1. The experiment in a line: Cytotoxicity against human Capan1 cells assessed as reduction in cell viability by MTT assay.

With `CC1COc2c(N3CCN(C)CC3)c(F)cc3c(=O)c(-c4nnc(SCC(=O)N/N=C/c5ccc(Cl)cc5)[nH]4)cn1c23` (stereo not drawn), the IC50 with Hep 3B2 [1], in the assay with SMMC-7721 [2], in the assay on L1210 [3] and in the assay on HL-60 [4] was 1.4 to 52.3 µM throughout.
On to `CCn1cc(-c2nnc(SCC(=O)N/N=C/c3ccc([N+](=O)[O-])cc3)o2)c(=O)c2cc(F)c(N3CCN(C)CC3)cc21`, for which the IC50 in the assay on Hep 3B2 [1], with SMMC-7721 [2], in the assay with L1210 [3] and with HL-60 [4] was 1.4 to 52.3 µM in each case.
On to `CC1COc2c(N3CCN(C)CC3)c(F)cc3c(=O)c(-c4nnc(SCC(=O)N/N=C/c5ccc([N+](=O)[O-])c6c5OCO6)[nH]4)cn1c23` (stereo not drawn), for which the IC50 with Hep 3B2 [1], in the assay on SMMC-7721 [2], in the assay with L1210 [3] and in the assay on HL-60 [4] was 1.4 to 52.3 µM in each case.
Consider `CCn1cc(-c2nnc(SCC(=O)N/N=C/c3ccc(OC)cc3)o2)c(=O)c2cc(F)c(N3CCN(C)CC3)cc21`, for which the IC50 in the assay on Hep 3B2 [1], with SMMC-7721 [2], with L1210 [3] and in the assay on HL-60 [4] was 1.4 to 52.3 µM throughout.
As for `CCn1cc(C(=O)N/N=C/c2ccccc2)c(=O)c2cc(F)c(N3CCNCC3)cc21`, the IC50 in the assay with Hep 3B2 [1], in the assay with SMMC-7721 [2], in the assay on L1210 [3] and in the assay on HL-60 [4] was 1.4 to 52.3 µM throughout.
In the case of `CCn1cc(-c2nnc(SCC(=O)N/N=C/c3ccc(C#N)cc3)o2)c(=O)c2cc(F)c(N3CCN(C)CC3)cc21`, the IC50 with Hep 3B2 [1], in the assay on SMMC-7721 [2], with L1210 [3] and in the assay with HL-60 [4] was 1.4 to 52.3 µM in each case.
Take `COc1ccc(/C=N/NC(=O)CSc2nnc(-c3cn4c5c(c(N6CCN(C)CC6)c(F)cc5c3=O)OCC4C)[nH]2)cc1` (stereo not drawn): the IC50 in the assay on Hep 3B2 [1], with SMMC-7721 [2], with L1210 [3] and in the assay on HL-60 [4] was 1.4 to 52.3 µM throughout.
As for `CCn1cc(-c2nc(SCc3nnc(-c4ccc(F)cc4)o3)n(CN(C)C)n2)c(=O)c2cc(F)c(N3CCN(C)CC3)cc21`, the IC50 in the assay on SMMC-7721 [5], in the assay with L1210 [6], with HL-60 [7], in the assay with Hep 3B2 [8] and in the assay on CAPAN-1 was 1.5 to 5.2 µM throughout.
As to `Cc1ccc(-c2csc3nc(-c4cn(C5CC5)c5cc(N6CCN(C)CC6)c(F)cc5c4=O)nn23)cc1`, the IC50 with SMMC-7721 [5], in the assay on L1210 [6], in the assay on HL-60 [7], in the assay on Hep 3B2 [8] and in the assay on CAPAN-1 was 3.6 to 56.8 µM throughout.
Consider `CC1COc2c(N3CCN(C)CC3)c(F)cc3c(=O)c(-c4nc5scc(-c6ccc7c(c6)OCO7)n5n4)cn1c23` (stereo not drawn), for which the IC50 with SMMC-7721 [5], in the assay with L1210 [6], in the assay with HL-60 [7], in the assay on Hep 3B2 [8] and with CAPAN-1 was 3.6 to 56.8 µM each time.
As for `CCn1cc(-c2nc(SCc3nnc(-c4ccc([N+](=O)[O-])cc4)o3)n(CN(C)C)n2)c(=O)c2cc(F)c(N3CCN(C)CC3)cc21`, the IC50 in the assay with SMMC-7721 [5], in the assay on L1210 [6], in the assay on HL-60 [7], in the assay with Hep 3B2 [8] and in the assay with CAPAN-1 was 1.5 to 24.5 µM each time.
On to `COc1ccccc1-c1csc2nc(-c3cn4c5c(c(N6CCN(C)CC6)c(F)cc5c3=O)OCC4C)nn12` (stereo not drawn), for which the IC50 in the assay with SMMC-7721 [5], with L1210 [6], with HL-60 [7], in the assay on Hep 3B2 [8] and in the assay on CAPAN-1 was 3.6 to 56.8 µM in each case.
For the molecule `CCn1cc(-c2nc(SCc3nnc(-c4ccc(OC)cc4)o3)n(CN(C)C)n2)c(=O)c2cc(F)c(N3CCN(C)CC3)cc21`, the IC50 in the assay on SMMC-7721 [5], with L1210 [6], in the assay with HL-60 [7], in the assay with Hep 3B2 [8] and with CAPAN-1 was 1.5 to 24.5 µM each time.
As to `Cc1ccc(-c2csc3nc(-c4cn5c6c(c(N7CCN(C)CC7)c(F)cc6c4=O)OCC5C)nn23)cc1` (stereo not drawn), the IC50 with SMMC-7721 [5], with L1210 [6], in the assay on HL-60 [7], in the assay with Hep 3B2 [8] and in the assay on CAPAN-1 was 3.6 to 56.8 µM throughout.
`CC1COc2c(N3CCN(C)CC3)c(F)cc3c(=O)c(-c4nc5scc(-c6ccccc6O)n5n4)cn1c23` (stereo not drawn): the IC50 with SMMC-7721 [5], with L1210 [6], with HL-60 [7], in the assay with Hep 3B2 [8] and with CAPAN-1 was 3.6 to 56.8 µM each time.
As to `CCn1cc(-c2nc(SCc3nnc(-c4cc(OC)c(OC)c(OC)c4)o3)n(CN(C)C)n2)c(=O)c2cc(F)c(N3CCN(C)CC3)cc21`, the IC50 with SMMC-7721 [5], with L1210 [6], in the assay on HL-60 [7], in the assay on Hep 3B2 [8] and in the assay with CAPAN-1 was 1.5 to 24.5 µM each time.
With `CC1COc2c(N3CCN(C)CC3)c(F)cc3c(=O)c(-c4nc5scc(-c6ccc(O)cc6)n5n4)cn1c23` (stereo not drawn), the IC50 in the assay on SMMC-7721 [5], in the assay with L1210 [6], in the assay with HL-60 [7], in the assay on Hep 3B2 [8] and in the assay with CAPAN-1 was 3.6 to 56.8 µM each time.
In the case of `CCn1cc(-c2nc3scc(-c4ccc(OC)cc4)n3n2)c(=O)c2cc(F)c(N3CCN(C)CC3)cc21`, the IC50 in the assay with SMMC-7721 [5], with L1210 [6], with HL-60 [7], with Hep 3B2 [8] and in the assay on CAPAN-1 was 3.6 to 56.8 µM each time.
Take `CCn1cc(-c2nnc(SCc3nnc(-c4ccc(C)cc4)o3)[nH]2)c(=O)c2cc(F)c(N3CCN(C)CC3)cc21`: the IC50 with SMMC-7721 [5], in the assay with L1210 [6], in the assay on HL-60 [7], with Hep 3B2 [8] and in the assay with CAPAN-1 was 3.8 to 35.2 µM in each case.
Take `CCn1cc(-c2nc(SCc3nnc(-c4ccccc4OC)o3)n(CN(C)C)n2)c(=O)c2cc(F)c(N3CCN(C)CC3)cc21`: the IC50 with SMMC-7721 [5], with L1210 [6], with HL-60 [7], in the assay with Hep 3B2 [8] and in the assay with CAPAN-1 was 1.5 to 24.5 µM throughout.
Regarding `CCn1cc(-c2nc3scc(-c4ccccc4OC)n3n2)c(=O)c2cc(F)c(N3CCN(C)CC3)cc21`, the IC50 in the assay on SMMC-7721 [5], in the assay with L1210 [6], in the assay on HL-60 [7], in the assay on Hep 3B2 [8] and with CAPAN-1 was 3.6 to 56.8 µM each time.
Regarding `CCn1cc(-c2nc3scc(-c4ccc(Cl)cc4)n3n2)c(=O)c2cc(F)c(N3CCN(C)CC3)cc21`, the IC50 in the assay on SMMC-7721 [5], in the assay on L1210 [6], with HL-60 [7], in the assay with Hep 3B2 [8] and with CAPAN-1 was 3.6 to 56.8 µM throughout.
Regarding `CCn1cc(-c2nc(SCc3nnc(-c4ccc(C)cc4)o3)n(CN(C)C)n2)c(=O)c2cc(F)c(N3CCN(C)CC3)cc21`, the IC50 with SMMC-7721 [5], with L1210 [6], in the assay on HL-60 [7], in the assay on Hep 3B2 [8] and with CAPAN-1 was 1.5 to 24.5 µM each time.
Consider `CCn1cc(-c2nc3scc(-c4ccc5c(c4)OCO5)n3n2)c(=O)c2cc(F)c(N3CCN(C)CC3)cc21`, for which the IC50 in the assay with SMMC-7721 [5], in the assay on L1210 [6], with HL-60 [7], in the assay on Hep 3B2 [8] and in the assay on CAPAN-1 was 3.6 to 56.8 µM each time.
For `COc1cc(-c2csc3nc(-c4cn5c6c(c(N7CCN(C)CC7)c(F)cc6c4=O)OCC5C)nn23)ccc1O` (stereo not drawn), the IC50 in the assay with SMMC-7721 [5], with L1210 [6], in the assay with HL-60 [7], in the assay on Hep 3B2 [8] and in the assay with CAPAN-1 was 3.6 to 56.8 µM each time.
Regarding `CCn1cc(-c2nc3scc(-c4ccc(O)cc4)n3n2)c(=O)c2cc(F)c(N3CCN(C)CC3)cc21`, the IC50 in the assay with SMMC-7721 [5], with L1210 [6], in the assay on HL-60 [7], in the assay on Hep 3B2 [8] and with CAPAN-1 was 3.6 to 56.8 µM each time.
Regarding `CN1CCN(c2cc3c(cc2F)c(=O)c(-c2nc4scc(-c5ccc(Br)cc5)n4n2)cn3C2CC2)CC1`, the IC50 in the assay with SMMC-7721 [5], in the assay on L1210 [6], in the assay with HL-60 [7], with Hep 3B2 [8] and in the assay on CAPAN-1 was 3.6 to 56.8 µM each time.
In the case of `CCn1cc(-c2nc3scc(-c4ccc([N+](=O)[O-])cc4)n3n2)c(=O)c2cc(F)c(N3CCN(C)CC3)cc21`, the half-maximal inhibitory concentration (IC50) with SMMC-7721 [5], in the assay with L1210 [6], in the assay with HL-60 [7], in the assay on Hep 3B2 [8] and with CAPAN-1 was 3.6 to 56.8 µM each time.
As to `CCn1cc(-c2nnc(SCc3nnc(-c4ccc(F)cc4)o3)[nH]2)c(=O)c2cc(F)c(N3CCN(C)CC3)cc21`, the IC50 with SMMC-7721 [5], in the assay on L1210 [6], in the assay with HL-60 [7], in the assay with Hep 3B2 [8] and with CAPAN-1 was 3.8 to 35.2 µM in each case.
In the case of `CC1COc2c(N3CCN(C)CC3)c(F)cc3c(=O)c(-c4nc5scc(-c6ccc(Cl)cc6)n5n4)cn1c23` (stereo not drawn), the half-maximal inhibitory concentration (IC50) with SMMC-7721 [5], in the assay on L1210 [6], in the assay on HL-60 [7], in the assay with Hep 3B2 [8] and with CAPAN-1 was 3.6 to 56.8 µM each time.
As for `CCn1cc(-c2nc3scc(-c4ccccc4O)n3n2)c(=O)c2cc(F)c(N3CCN(C)CC3)cc21`, the IC50 with SMMC-7721 [5], in the assay on L1210 [6], with HL-60 [7], in the assay with Hep 3B2 [8] and with CAPAN-1 was 3.6 to 56.8 µM throughout.
On to `COc1ccc(-c2csc3nc(-c4cn5c6c(c(N7CCN(C)CC7)c(F)cc6c4=O)OCC5C)nn23)cc1` (stereo not drawn), for which the IC50 in the assay on SMMC-7721 [5], with L1210 [6], in the assay on HL-60 [7], with Hep 3B2 [8] and in the assay with CAPAN-1 was 26.7 to 35.7 µM each time.
`CCn1cc(-c2nnc(SCc3nnc(-c4cc(OC)c(OC)c(OC)c4)o3)[nH]2)c(=O)c2cc(F)c(N3CCN(C)CC3)cc21`: the IC50 with SMMC-7721 [5], with L1210 [6], in the assay on HL-60 [7], in the assay on Hep 3B2 [8] and in the assay with CAPAN-1 was 3.8 to 35.2 µM each time.
